# Results as given in article doi:10.1101/2021.05.05.442810v1 (biorxiv, 2021).
# Biological target: truncated variant of M. xanthus ParB (NB and DNA-binding domains) (Myxococcus xanthus, UniProt Q1CVJ4)
# Conditions: formed from CTPγS in crystallization; Mg2+; with thiophosphate; pH 8.5
smiles,measurement,value
Nc1ccn([C@@H]2O[C@H](COP(=O)(O)OP(=O)(O)O)[C@@H](O)[C@H]2O)c(=O)n1 [CDP],X-ray crystal structure (1.9 Å),we did not detect CTPγS but CDP
